Test results taken from PMC6857582, “Characterization of aminopeptidase encoding gene anp-1 and its association with development in Caenorhabditis elegans” (PeerJ, 2019).

Assays:
[1] = molecular target: T1, rANP-1 (AlaNyl aminopeptidase 1) (Caenorhabditis elegans, UniProt Q22317); test: L-Leu-pNA hydrolysis, absorbance at […] nm; type: biochemical; details: inhibitor concentration not given; pre-incubation with inhibitor; substrate L-Leu-pNA; refolded fragment
T1 construct: gene anp-1
T1 sequence (Q22317 93-559): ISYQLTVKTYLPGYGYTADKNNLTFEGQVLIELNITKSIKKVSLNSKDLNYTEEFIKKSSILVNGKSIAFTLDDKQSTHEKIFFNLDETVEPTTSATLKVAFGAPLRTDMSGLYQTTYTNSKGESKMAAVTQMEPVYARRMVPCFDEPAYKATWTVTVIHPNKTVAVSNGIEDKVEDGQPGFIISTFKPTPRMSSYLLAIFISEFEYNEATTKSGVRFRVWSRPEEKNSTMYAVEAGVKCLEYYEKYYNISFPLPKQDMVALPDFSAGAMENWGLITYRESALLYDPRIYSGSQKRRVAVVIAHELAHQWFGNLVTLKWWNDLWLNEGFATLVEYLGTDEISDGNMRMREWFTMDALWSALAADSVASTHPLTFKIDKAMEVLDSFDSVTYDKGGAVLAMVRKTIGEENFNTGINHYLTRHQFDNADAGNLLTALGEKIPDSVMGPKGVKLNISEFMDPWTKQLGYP

[2] = molecular target: T1, rANP-1 (AlaNyl aminopeptidase 1); test: p-nitroanilide release, absorbance at […] nm; type: biochemical; details: refolded fragment

| SMILES | % reduction of activity [1] | p-nitroanilide release, absorbance at 405 nm [2] |
| --- | --- | --- |
| CC(C)C[C@@H](N)[C@H](O)C(=O)N[C@H](C(=O)N[C@H](C(=O)N[C@@H](CC(=O)O)C(=O)O)C(C)C)C(C)C [amastatin] | ~ 55% |  |
| CC(C)C[C@H](N)C(=O)Nc1ccc([N+](=O)[O-])cc1 [L-leucine-p-nitroanilide] |  | Aminopeptidase activity of rANP-1 protein was measured using L-Leu-pNA as substrate |
| CC(C)C[C@H](NC(=O)[C@@H](O)[C@H](N)Cc1ccccc1)C(=O)O [bestatin] | ~ 46% |  |
